Consider 3 compounds from patent publication US9708309B2, “Arylcyclopropylamine based demethylase inhibitors of LSD1 and their medical use” (Oryzon Genomics S.A., priority 2010, dated 2017).

Entries after “also recorded” stand apart in the source; their conditions may differ.

For test [1], the target named is Human recombinant MAO-A (Homo sapiens (Human), UniProt P21397). Nature of the test: biochemical.
Description: Human recombinant monoamine oxidase proteins MAO-A and MAO-B were purchased from Sigma Aldrich. […] In order to monitor MAO enzymatic activities and/or their inhibition rate by inhibitor(s) of interest, a fluorescent-based (inhibitor)-screening assay was set up. 3-(2-Aminophenyl)-3-oxopropanamine (kynuramine dihydrobromide, Sigma Aldrich), a non fluorescent compound was chosen as a substrate. Kynuramine is a non-specific substrate for both MAOs activities. While undergoing oxidative deamination by MAO activities, kynuramine is converted into 4-hydroxyquinoline (4-HQ), a resulting fluorescent product.
The monoamine oxidase activity was estimated by measuring the conversion of kynuramine into 4-hydroxyquinoline. Assays were conducted in 96-well black plates with clear bottom (Corning) in a final volume of 100 μL. […]
After leaving the enzyme(s) interacting with the inhibitor, 60 to 90 μM of kynuramine was added to each reaction for MAO-B and MAO-A assay respectively, and the reaction was left for 1 hour at 37° C. in the dark. […] The conversion of kynuramine to 4-hydroxyquinoline, was monitored by fluorescence (excitation at 320 nm, emission at 360 nm) using a microplate reader (Infinite 200, Tecan). Arbitrary units were used to measure levels of fluorescence produced in the absence and/or in the presence of inhibitor.
The Ki (IC50) of each inhibitor was determined at Vmax/2.
Test [2] addresses MAO-B (Homo sapiens (Human), UniProt P27338). Particulars: ratio of kinact/KI MAO-B over MAO-A.
Protocol: For MAO-B, the protein was kept between 1.8 and 3.6 ng/ul (Sigma M7441) and kynuramine (Sigma) at 50 uM was used as substrate.
The target in test [3] is LSD1 protein (Homo sapiens (Human), UniProt O60341). The following applies: 25° C., H3-K4me2 peptide.
Protocol: The kinetic parameters of LSD1 demethylase inhibition were obtained using the peroxidase-coupled reaction method. […] The final DMSO concentration was 0.7% and constant in all assay wells.
The conversion of the Amplex® Red reagent to resorufin due to generation of H2O2 was continuously monitored by fluorescence (excitation at 540 nm, emission at 590 nm) using a microplate reader (Infinite 200, Tecan). A solution of 1 μM H2O2 was used to calibrate the fluorescence signal and the temperature was kept constant at 25° C.
Briefly, progress curves obtained in the presence of test compound were fit to derive kobs (k) based on the following equation:
The kobs values were then used to derive the kinetic constant by using the following equations (Kitz and Wilson analysis):

Sequence of Human recombinant MAO-A (P21397 whole entry): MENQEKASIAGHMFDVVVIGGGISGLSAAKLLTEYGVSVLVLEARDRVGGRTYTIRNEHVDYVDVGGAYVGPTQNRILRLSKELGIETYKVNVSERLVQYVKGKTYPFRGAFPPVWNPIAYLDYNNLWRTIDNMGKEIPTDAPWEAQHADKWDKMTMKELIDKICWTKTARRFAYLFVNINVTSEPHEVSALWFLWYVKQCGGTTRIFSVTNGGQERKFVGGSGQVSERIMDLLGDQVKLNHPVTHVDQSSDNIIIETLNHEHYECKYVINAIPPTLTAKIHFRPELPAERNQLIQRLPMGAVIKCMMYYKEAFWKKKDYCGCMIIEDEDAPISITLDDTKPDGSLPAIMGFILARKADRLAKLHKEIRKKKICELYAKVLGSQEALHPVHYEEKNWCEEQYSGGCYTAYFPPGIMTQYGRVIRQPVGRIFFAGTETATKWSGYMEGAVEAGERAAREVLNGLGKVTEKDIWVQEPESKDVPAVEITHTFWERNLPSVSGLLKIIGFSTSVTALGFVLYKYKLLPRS
Sequence of MAO-B (P27338 whole entry): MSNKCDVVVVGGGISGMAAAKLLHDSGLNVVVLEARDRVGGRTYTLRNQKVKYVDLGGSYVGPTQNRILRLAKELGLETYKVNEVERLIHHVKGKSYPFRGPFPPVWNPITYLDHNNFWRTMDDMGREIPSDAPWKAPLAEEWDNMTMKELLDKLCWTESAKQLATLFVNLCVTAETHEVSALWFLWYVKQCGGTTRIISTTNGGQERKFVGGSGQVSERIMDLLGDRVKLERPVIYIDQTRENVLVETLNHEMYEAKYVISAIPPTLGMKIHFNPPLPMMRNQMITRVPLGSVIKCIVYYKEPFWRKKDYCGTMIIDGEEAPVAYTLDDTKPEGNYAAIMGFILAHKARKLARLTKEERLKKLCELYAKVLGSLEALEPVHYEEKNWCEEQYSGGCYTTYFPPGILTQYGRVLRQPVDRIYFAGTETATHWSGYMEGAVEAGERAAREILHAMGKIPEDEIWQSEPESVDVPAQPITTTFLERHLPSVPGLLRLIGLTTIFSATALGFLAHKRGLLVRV

Turning to `Nc1nnc(CN[C@H]2C[C@@H]2c2ccc(OCc3cccc(F)c3)cc2)o1` (relative stereo) [Example 12, 5-((((trans)-2-(4-((3-fluorobenzyl)oxy)phenyl)cyclopropyl)amino)methyl)-1,3,4-oxadiazol-2-amine], in test [1], the Ki was 1 to 40 µM.

Take `Nc1nnc(CN[C@H]2C[C@@H]2c2ccc(OCc3ccc(Cl)cc3)cc2)o1` (relative stereo) [Example 14, 5-((((trans)-2-(4-((4-chlorobenzyl)oxy)phenyl)cyclopropyl)amino)methyl)-1,3,4-oxadiazol-2-amine]: in test [1], the Ki lay in the range of 1 to 40 µM. Regarding `C#CCN[C@@H]1CCc2ccccc21` [Rasagiline], the “selectivity index kinact/KI for MAO-B/MAO-A” value in test [2] is 120. For the same compound, in test [3], the “Catalytic efficiency kinact/KI, LSD1” value is recorded as “not active; also recorded: Inactive”.

In general, Ki refers to the dissociation constant of the complex between target and ligand, obtained from inhibition or displacement.
